Like-named read-outs stand apart in the source and are kept apart here. One block for each molecule: values may come before it.
Assays:
[1] = cited from earlier work
human serum albumin = details: 45 g/L albumin, in vitro; cited from earlier work
[2] = in vitro and in vivo toxicology studies; cited from earlier work
P-gp [3] = details: read-out: inhibition constant (K i), digoxin transport; cited from earlier work
[4] = minipigs, cited from earlier work
P-gp [5] = details: Caco-2 monolayers and human P-gp-expressing LLC-PK1 cells; cited from earlier work
[6] = rabbit; ref Boehringer Ingelheim unpublished data, 25, 28; cited from earlier work
[7] = all animal species (rabbits, rats, minipigs and mice), 0.05–0.5 μM; cited from earlier work
[8] = cited from earlier work; remark: listed apart in the source
[9] = PopPK, cited from earlier work
[10] = a P-gp substrate; cited from earlier work
[11] = LUX-Lung 3, cited from earlier work
[12] = cited from earlier work; remark: listed apart in the source
BCRP = details: in vitro; cited from earlier work
[13] = tested on: EGFR, HER2, ErbB4 phosphorylation and ErbB3 transphosphorylation; details: wide variety of cell lines; cited from earlier work
[14] = tested on: cytochrome P450 (CYP) isoenzymes; details: human hepatocytes and human liver microsomes; ref Boehringer Ingelheim unpublished data, 26; cited from earlier work
[15] = mouse; ref Boehringer Ingelheim unpublished data, 25, 28; cited from earlier work
ErbB4 = details: ErbB4, cell-free; cited from earlier work
HER2 = details: HER2, cell-free; cited from earlier work
[16] = cited from earlier work; remark: listed apart in the source
[17] = cited from earlier work; remark: listed apart in the source
[18] = tested on: OATP, OAT and OCT drug transporters; details: transfected HEK293 cell lines; cited from earlier work
[19] = physiological pH range of 1–7.5; cited from earlier work
[20] = cited from earlier work; for V z/F, gMean / gMean terminal half-life: 10–100 mg doses
[21] = after a high-fat, high-caloric meal; cited from earlier work
[22] = cited from earlier work; remark: listed apart in the source
[23] = cited from earlier work; remark: listed apart in the source
[24] = cited from earlier work; remark: listed apart in the source
[25] = human; cited from earlier work
[26] = format: in vivo; details: human, plasma, oral
[27] = afatinib 20 mg, ritonavir 200 mg twice daily administered 1 h before afatinib, healthy subjects

SMILES: CN(C)C/C=C/C(=O)Nc1cc2c(Nc3ccc(F)c(Cl)c3)ncnc2cc1O[C@H]1CCOC1 [afatinib dimaleate]
dose recovered in the urine ([1]; within 216 h after oral dose of 15 mg [14C]-radiolabelled afatinib dimaleate): 4.29%
dose recovered in the faeces ([1]; within 312 h after oral dose of 15 mg [14C]-radiolabelled afatinib dimaleate): 85.4%
binding to isolated human serum albumin (human serum albumin): 79.6%

half-life [26]: ~37 h
SMILES: CN(C)CC=CC(=O)Nc1cc2c(Nc3ccc(F)c(Cl)c3)ncnc2cc1O[C@H]1CCOC1 [afatinib, N-[4-[(3-chloro-4-fluorophenyl)amino]-7-[[(3S)-tetrahydro-3-furanyl]oxy]-6-quinazolinyl]-4-(dimethylamino)-2-butenamide]
genotoxicity [2]: no evidence of genotoxicity
Ki (P-gp [3]): 3.4 µM
volume of distribution ([4]; intravenous dosing): 12.4 L/kg
excretion of unchanged parent compound ([4]; ref Boehringer Ingelheim unpublished data, 25, 28): > 72%
substrate of the efflux transporter P-gp (P-gp [5]): P-gp substrate
excretion of unchanged parent compound [6]: > 87%
Mean plasma protein binding [7]: > 92%
effect of renal impairment on plasma protein binding [8]: no effect
increase in AUC in patients with severe renal impairment ([8]; severe renal impairment): approximately 50%
urinary excretion of afatinib-related radioactivity ([1]; ADME study): < 5%
unchanged drug excreted in urine ([1]; approximate): approximately 5%
increase in exposure for CLCR 43 mL/min ([9]; 2.5th percentile): 27.8%
increase in exposure in female patients ([9]; accounting for all other covariate effects): 15%
decrease in exposure for food intake ([9]; food intake less than 3 h before or less than 1 h after afatinib administration): 26%
change in exposure on concomitant administration with sirolimus [10]: did not result in a clinically relevant change in exposure
interpatient variability in exposure (gCV) ([11]; day 1 of cycle three): 67%
interpatient variability in exposure (gCV) ([11]; day 1 of cycle two): 85%
BCS class [12]: BCS class 1 or 3
substrate and inhibitor of the efflux transporter BCRP (BCRP): substrate and inhibitor
potency of inhibition of phosphorylation in cells [13]: low nanomolar range
potential to inhibit or induce CYP isoenzymes [14]: low potential to inhibit or induce
excretion of unchanged parent compound [15]: > 60%
potency to inhibit kinase (ErbB4): nanomolar potency
potency to inhibit kinase (HER2): nanomolar potency
excretion of unchanged parent compound ([16]; rat, ref Boehringer Ingelheim unpublished data, 25, 28): > 50%
volume of distribution ([16]; rats, intravenous dosing): 16.2 L/kg
passive permeability through cell membranes [17]: high passive permeability
in vitro transport of afatinib by OATP, OAT, OCT [18]: no relevant in vitro transport
solubility [19]: highly soluble
time to achieve steady-state ([20]; once-daily dosing): ≤ 8 days
V z/F, gMean ([20]; single doses): 1940 L
gMean terminal half-life ([20]; single doses): 21 h
Overall drug clearance (CL/F), gMean ([20]; single doses): 1050 mL/min
V z/F, gMean ([20]; steady state): 2770 L
gMean terminal half-life ([20]; steady state): 37 h
Overall drug clearance (CL/F), gMean ([20]; steady state): 898 mL/min
reduction of AUC∞ by food [21]: ~39%
reduction of C max by food [21]: approximately 50%
decrease of mean time-matched QTcF between baseline and day 14 ([22]; afatinib 50 mg, over 1–24 h following administration, non-significant): 0.3 ms
proarrhythmic potential ([22]; dose of 50 mg): does not have proarrhythmic potential
effect of hepatic impairment on plasma protein binding [23]: no effect
increase in afatinib exposure (AUC∞) by ritonavir [24, 27]: 48%
increase in afatinib exposure (C max) by ritonavir [24, 27]: 39%
change in afatinib exposure by ritonavir ([24]; afatinib 40 mg, ritonavir taken concomitantly or 6 h after afatinib): did not relevantly change
plasma protein bound [25]: approximately 95%
